Test results taken from article PMC6273715, “Synthesis and Evaluation of New Benzodioxole- Based Thiosemicarbazone Derivatives as Potential Antitumor Agents” (Molecules, 2016).

Columns and labels:
[1] = test system: A549 cells; test: DNA synthesis inhibition (BrdU ELISA), A549; format: cell-based, human; conditions: A549, compound at its IC50, 24 h
Protocol: (§1) The immunostaining procedure was carried out with specific anti-BrdU antibodies in the S-phase of the cell cycle. DNA synthesis inhibitory effects of all compounds were evaluated for 24 h. A549 and C6 cell lines were incubated with three different concentrations of the compounds that were determined according to their IC50 values. Cisplatin was used as a positive control.
(§2) Analysis of DNA synthesis was measured by a Cell Proliferation ELISA, BrdU (colorimetric) kit (Roche, Mannheim, Germany). This immunostaining procedure is based on measuring the incorporation of bromodeoxyuridine (BrdU) into nuclear DNA in place of thymidine during the S-phase of the cell cycle using specific anti-BrdU antibodies. […] Firstly cells were seeded into 96 well flat-bottomed microtiter plates at a density of 2 × 10^3. […] Microtiter plates were incubated at 37 °C in a 5% CO2/95% air humidified atmosphere for 24 h. Cells were labeled with 10 µL BrdU solution for 2 h and then fixed. Anti-BrdU-POD (100 µL) was added and incubated for 90 min. Finally, wells were washed with BPS and cells were incubated with substrate. Absorbance of the samples was measured with an ELX808-IU Bio-Tek apparatus at 492 nm. All experiments were repeated two times. For each compound dose, dublicate wells were used.

[2] = test system: A549 cells; test: Mitochondrial membrane potential (JC-1) flow cytometry, A549; format: cell-based, human; conditions: IC50 dose, 24 h
Protocol: (§3) During apoptosis, several key events occur in mitochondria including the release of cytochrome c, changes in electron transport, and loss of mitochondrial transmembrane potential (ΔΨm). For this reason, ΔΨm is an important parameter of mitochondrial function in apoptosis.
(§4) The cells were seeded in six-well plates at a density of 10^5 cells/mL, and the IC50 dose of compounds 2, 5 and 10 was added to cells. The cells were incubated in 5% CO2 air-conditioned atmosphere at 37 °C. […] 5,5′,6,6′-Tetrachloro-1,1′,3,3′-tetraethylbenzimidazolylcarbocyanine iodide (JC-1) dye solution (1× assay buffer + JC-1 stock solution) was added to the cells. The stock solution was prepared by dissolving DMSO. Then the samples were incubated at a temperature of 37 °C for 10–15 min. After incubation, the cells were washed twice with an assay buffer and analyzed by BD FACS Aria Cell Sorter Software version 6.1.1 flow cytometry (BD Biosciences). The cells showing mitochondrial membrane potential disruption were determined as a percentage of all cells.

[3] = test system: A549 cells; test: Annexin V-PI flow cytometry of apoptosis, A549; format: cell-based; conditions: IC50 dose, 24 h
Protocol: (§5) Annexin V staining protocol was applied according to the manufacturer’s instructions (BD Pharmingen). The cells were then briefly washed with cold phosphate buffer saline (PBS) and suspended in a binding buffer at a concentration of 1 × 10^6 cells/mL. Then, 100 µL of this solution containing 1 × 10^5 cells was transferred to a 5 mL test tube. After 5 µL of Annexin-V and PI was added, the cells were incubated for 15 min at room temperature in the dark. Then 400 µL of 1x Binding Buffer was added to each tube and the cells were processed for data acquisition, and analyzed on a Becton–Dickinson FACS Aria using […] Version 6.1.1. Software (BD Biosciences, San Jose, CA, USA).

[4] = test system: SIRT1; test: Sirtuin-1 detection by ELISA in C6 glioma cells; format: cell-based, rat; conditions: 24 h
[5] = test system: C6 rat glioma cells; test: MTT cytotoxicity assay, C6; format: cell-based; conditions: MTT, 24 h; read-out: IC50 C6 Cell Line
Protocol: (§6) C6 Rat glioma and NIH/3T3 mouse embryonic fibroblast cells were incubated in Dulbecco’s Modified Eagle’s Medium (DMEM) (Sigma, Deisenhofen, Germany) supplemented with 10% fetal calf serum (Gibco, Paisley, UK). A549 Human lung adenocarcinoma cells were incubated in 90% RPMI supplemented with 10% fetal bovine serum (Gibco). […] Exponentially growing cells were plated at 2 × 10^4 cells/mL into 96-well microtiter tissue culture plates (Nunc, Roskilde, Denmark) and incubated for 24 h before the addition of the drugs (the optimum cell number for cytotoxicity assays was determined in preliminary experiments).
(§7) The level of cellular 3-(4,5-dimethylthiazol-2-yl)-2,5-diphenyltetrazolium bromide (MTT) (Sigma) reduction was quantified as previously described in the literature with small modifications. […] At the end of this period, MTT was added to a final concentration of 0.5 mg/mL and the cells were incubated for 4 h at 37 °C. After the medium was removed, the formazan crystals formed by MTT metabolism were solubilized by addition of 200 µL DMSO to each well and absorbance was read at 540 nm with a microtiter plate spectrophotometer (Bio-Tek Plate Reader, Winooski, VT, USA). Every concentration was repeated in three wells.

[6] = test system: C6 cells; test: DNA synthesis inhibition (BrdU ELISA), C6; format: cell-based, rat; conditions: C6, compound at its IC50, 24 h
Protocol: as §1, §2

[7] = test system: C6 cells; test: Mitochondrial membrane potential (JC-1) flow cytometry, C6; format: cell-based, rat; conditions: IC50 dose, 24 h
Protocol: as §3, §4

[8] = test system: A549 human lung adenocarcinoma cells; test: MTT cytotoxicity assay, A549; format: cell-based; conditions: MTT, 24 h; read-out: IC50 A549 Cell Line
Protocol: as §6, §7

[9] = test system: C6 cells; test: Annexin V-PI flow cytometry of apoptosis, C6; format: cell-based; conditions: IC50 dose, 24 h
Protocol: as §5

[10] = test system: ribonucleotide reductase; design: method as in PMID 21425997, PMID 22655252, PMID 22963201, PMID 19601577, PMID 26335599; conditions: both enzyme and cell assays; cited from earlier work

Row | Compound | DNA synthesis inhibition percent [1] [%] | P2 (%) mitochondrial membrane polarized cells, A549 Cells [2] [%] | P3 (%) mitochondrial membrane depolarized cells, A549 Cells [2] [%] | Early and Late Apoptotic Cells % A549 Cells [3] [%] | SIRT1 Concentration ([4]; IC50/2 concentration) [ng/mL] | SIRT1 Concentration ([4]; IC50 concentration) [ng/mL] | IC50 [5] [µM] | DNA synthesis inhibition percent [6] [%] | P2 (%) mitochondrial membrane polarized cells, C6 Cells [7] [%] | P3 (%) mitochondrial membrane depolarized cells, C6 Cells [7] [%] | IC50 [8] [µM] | Early and Late Apoptotic Cells % C6 Cells [9] [%] | potency relative to hydroxyurea [10] [times]
1 | N.N.[Cl][Pt][Cl] [Cisplatin, reference compound] | 55.73 | 41.4 | 54.0 | 32.4 | 4.53 ± 1.37 | 3.32 ± 1.41 | 6.83 ± 0.28 | 53.95 | 46.6 | 48.4 | 3 ± 0.88 | 16.3 | –
2 | NC(=S)NN=Cc1ncccc1N [Triapine, 3-aminopyridine-2-carboxaldehyde thiosemicarbazone] | – | – | – | – | – | – | – | – | – | – | – | – | 1000
